Measurements: US20250188032A1, “NITROGEN-CONTAINING HETEROCYCLIC COMPOUNDS AND USES THEREOF” (BNH RESEARCH CO., LTD., priority 2022, published 2025)

Key:
[1] = tested on: SH-SY5Y cells; test: Cytotoxicity test (CCK-8 cell viability) in SH-SY5Y cells; format: cell-based, human; details: 0, 0.1, 1, 10, 100 μM
Experimental: Human undifferentiated neuroblastoma cell line SH-SY5Y and human embryonic kidney cell line (HEK)-293T were purchased from Korean Cell Line Bank (Korea) and Takara (Japan), respectively. Cells were grown in HyClone Minimal Essential Medium (MEM) and Dulbecco's Modified Eagle Medium (DMEM), respectively, supplemented with 10% (v/v) fetal bovine serum (FBS), penicillin (100 U/mL), and streptomycin ([…]). Cells were maintained in a humidified atmosphere of 95% air and 5% CO2 at 37° C. Cells were passaged 10 times at maximum. Cells were dissociated using 0.05% trypsin-EDTA solution and the cells were seeded in new culture dishes for maintenance.
To examine the cytotoxicity of compounds described herein in human cell lines, SH-SY5Y and 293T cells were used. […] Finally, 10 μL of CCK-8 reagent (Dojindo Laboratories, Rockville, MD) was added to each well, and after incubation at 37° C. for 3 minutes, the OD at 450 nm was measured using a multifunction microplate reader (Tecan Infinite M200 Pro). These measurements were compared to that of a control and expressed as a percentage of the control to calculate cell viability. The IC50 value was calculated using SPSS software. To do this, the absorbance of the blank wells with only growth medium is subtracted from the values or the wells with cells. […]

[2] = tested on: BDNF and GluN2B expression in 293T cells; test: RT-PCR of BDNF and GluN2B mRNA in 293T cells; format: cell-based, human; details: 6 hours after treating 293T cells, vs untreated group
Experimental: RT-PCR was used to measure the amount of BDNF and GluN2B in response to compounds of the present disclosure. 293T cells were dissociated using 0.05% Trypsin-EDTA solution and seeded in 24 well or 6 well dishes for RNA work. After incubation at 37° C. in a humidified atmosphere with 5% CO2 for 24 hours, the culture medium was replaced by a medium containing a series of concentrations of tested compounds diluted with the DMEM without FBS. Time course experiments were performed. The same volume of DMSO was used for negative control.
RNA was isolated from the cells after the compound treatment. After removing growth media, 0.3 to 0.4 mL of TRIzol™ per 1×10^5 to 10^7 cells were added directly to the culture dish to lyse the cells. […] RNA concentration was determined with the Thermo Scientific™ ρDrop™ plate. RNA quality was determined by measuring A230/260 and A260/280 ratio. […]
The PCR product was analyzed by agarose gel electrophoresis. […]
The BnH12 series drug according to the present disclosure was synthesized as a compound targeting HDAC4, which inhibits the expression of BDNF. […] In addition, it is known that the increase in the expression of BDNF increases the expression of GluN2B, and the mRNA level of GluN2B was also measured together with BDNF to measure the efficacy of BnH12001 in degrading HDAC4.

Question: How did the “Change in cell viability” value [1] turn out when CC1CCC(C(=O)O)CN1C(=O)Cc1ccc(F)cc1Cl (racemic) [BnH12001, 1-(2-(2-chloro-4-fluorophenyl)acetyl)-6-methylpiperidine-3-carboxylic acid] was run?
Answer: no significant change in cell viability

Question: And the “BDNF mRNA level” value [2]?
Answer: significantly increased

Question: What about the “GluN2B mRNA level” value [2] of the same compound?
Answer: significantly increased
